Data set [1] is described as follows: Plasma thymidine level after dT injection. Type of data set: in vivo, NSG mice. As to the method: NOD SCID gamma (NSG) mice were injected with 2 g/kg dT intraperitoneally; 75 μL of whole blood was obtained at 0, 2, 4, and 8 hr through retro-orbital sinus bleed using hematocrit capillary tubes. Whole blood was immediately centrifuged at 3000× g for 5 min to isolate serum; 30 μL of serum was mixed with 1 mL methanol:acetonitrile (1:9), vortexed for 2 min, centrifuged at 14,000× g for 4 min at 4° C. Extraction was repeated and the pooled supernatant was dried under vacuum centrifugation. The residue was dissolved in 100 μL water, filtered and eluted through a Waters microBondapak C18 column under a gradient mobile phase from 2% methanol to 50% methanol over ten minutes at a flow rate of 1.5 mL/min.

The test system of data set [2] is dCTP and dTTP pools of CEM cells. Nature of the data set: Intracellular dNTP pool measurement in CEM cells. In kind it is cell-based, human. Conditions: 24 hr.
Data set [3] has as its system NSP-produced dCTP incorporated into DNA of CEM cells. Nature of the data set: Stable isotope labeling of dCTP biosynthesis in CEM cells. In kind it is cell-based, human. The following applies: 12 hr labeling, dT treatment.
Data set [4] has as its target dCK activity in CCRF-CEM tumor xenografts (Homo sapiens, UniProt P27707).
Experimental: Four hours post-treatment mice were injected intravenously with 70 μCi of ^18F-L-FAC. For all mPET/CT studies, a 1 h interval was allowed between probe administration and mPET/CT scanning (Inveon, Siemens Medical Solutions USA Inc.; microCAT, Imtek Inc.). Static mPET images were acquired for 600 s. Images were analyzed using OsiriX Imaging Software Version 3.8.
Data set [5] has as its system NSP-produced dCTP incorporated into tumor DNA. Nature of the data set: [U-13C/15N]-dC incorporation into DNA of CEM tumor xenografts. In kind it is in vivo, NSG mice. The following applies: dCK^wt CEM tumors, dT 2 g/kg single dose, 4 hr. As to the method:
For the in vivo studies, tumor-bearing mice were injected with 200 μL, of 2.5 mM [U-^13C/^15N]-deoxycytidine 30 min prior to sacrifice. Tumors were harvested, mechanically digested into single cells, and cell counts were obtained. DNA extraction was carried out as described above.
DNA hydrolysis samples were diluted 1/1 with solvent A (water/formic acid, 100/0.2, v/v) and analyzed using a modified version of a previously reported method (Cohen et al., 2009) in which aliquots of the solution (10 μL) were injected onto a porous graphitic carbon column (Thermo Hypercarb, 100×2.1 mm, 3 micron particle size) equilibrated in solvent A and eluted (300 μL/min) with an increasing concentration of solvent B (acetonitrile/min/% B; 0/0, 6/60, 6.1/100, 9/100, 9.1/0, 10/0). […] After verification of retention times using authentic standards, the peak areas of the MH^+→fragment ion transitions for the dC isotopomers (M0, 228.1→112.1; M1, 229.1→112.1; M2, 230.1→112.1; M3, 231.1→112.1; M4, 232.1→112.1; M5, 233.1→112.1; M6, 234.1→113.1; M7, 235.1→114.1; M8, […]; […]; M11, 239.1→118.1; and M12, 240.1→119.1) were recorded with instrument manufacturer-supplied software (Agilent MassHunter), and normalized to cell number. The dC isotopomers of M3 through M8 for the DNP and M11 through M12 for NSP were detected and used for data analysis.

Data set [6] has as its system CEM leukemic cells in bone marrow. Nature of the data set: Systemic T-ALL model (CEM cells injected intravenously). Type of data set: in vivo, NSG mice. The following applies: dT 2 g/kg every 12 hr.
Experimental: Ten μL of blood was collected via tail vein nick and mixed with 2 μL 50 mM EDTA. One μL of blood was mixed with 99 μL PBS and transferred to a 96 well OptiPlate (Perkin Elmer). One hundred μL of 20 μM coelenterazine substrate was mixed and luciferase activity was measured using a plate luminescence microplate reader SpectraMax L (Molecular Devices). Systemic tumor models were established by intravenous injection of 10^6 CEM dCK^wt-sGluc-GFP or dCK^low-sGluc-GFP in 100 μL RPMI.

The structures appear in SMILES notation.

Sequence of dCK activity in CCRF-CEM tumor xenografts (P27707 whole entry): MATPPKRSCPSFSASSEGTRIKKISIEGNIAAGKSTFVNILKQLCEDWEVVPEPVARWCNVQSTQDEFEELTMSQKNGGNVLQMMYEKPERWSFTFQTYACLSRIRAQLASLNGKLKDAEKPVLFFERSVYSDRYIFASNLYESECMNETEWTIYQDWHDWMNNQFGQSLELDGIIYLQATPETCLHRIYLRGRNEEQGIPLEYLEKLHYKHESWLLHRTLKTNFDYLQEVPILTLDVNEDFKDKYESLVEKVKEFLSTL

Regarding `Cc1cn([C@H]2C[C@H](O)[C@@H](CO)O2)c(=O)[nH]c1=O` [dT, thymidine], the concentration at 8 hr in data set [1] (NOD SCID gamma (NSG), mouse, plasma, ip, at 8 hr after single injection 2 g/kg intraperitoneally, read-out: plasma dT, declined to baseline values) was around 10 µM. Further, the “plasma dT peak” value in data set [1] (two hours after single injection 2 g/kg intraperitoneally) is 1.5 mM. In data set [2] (50 μM dT), the “fold increase of dTTP” value was around 20 fold and the “fold reduction of dCTP” value is around 5 fold. Further, the “decrease of dCTP pool” value in data set [2] (DI-39 1 μM, dT 50 μM, or both) is on record as around 30%. Further, the “fold increase over baseline of utilization of NSP-produced dCTP for DNA synthesis” value in data set [3] is reported as “more than 3 fold”. Moreover, the “increase of 18F-L-FAC accumulation” value in data set [4] was around 20%. Moreover, the “fold increase of labeled dCTP incorporation into DNA” value in data set [5] is around 3 fold. In data set [6], the “fold reduction in percentage of leukemic cells in bone marrow relative to vehicle and DI-39 treated groups” value was around 7 fold.

Values taken from US9981961B2, “Deoxycytidine kinase inhibitors” (The Regents of the University of California, priority 2013, dated 2018).
